Results on two molecules are retold here after patent EP2592085B1, “Thiazolo[3,2-a][1,3]diazepine derivatives and pharmaceutical compositions containing the same as anticonvulsant agents and method for their preparation” (King Saud University, priority 2011, dated 2013).

For series [1], the system named is Swiss albino mice. Nature of the series: animal or person. The class given is in vivo. To be noted: for ED50: Mus musculus, ip, PTZ, median effective dose, log-probit method; for % Protection: PTZ 100 mg/kg i.p. given 30 min after compound i.p., dose SGH-35 200 mg/kg (0.78 mmol/kg), SGH-40 100 mg/kg (0.38 mmol/kg), 4 animals; for PI: male, Swiss albino, mouse, in vivo. The protocol: (§1) Adult male Swiss albino mice (22-28 g), approximately 10-week old, were used to conduct the anticonvulsant evaluation. They were housed in cages and kept at a temperature of 20 ± 2°C and a relative humidity of 55 ± 5% with a light-dark cycle of 12 h and fed with standard diet and water ad libitum. Compounds of the formula 1 have been dissolved in dimethylsulfoxide and administered at dose levels of 25, 50, 100 and 200 mgl/kg intraperitoneal (i.p.). Sodium valproate was freshly dissolved in 0.9 % NaCl and used at dose level of 200 mg/kg (1.38 mmol/kg) i.p., 30 min after the test compounds as a positive control. A control group of mice was included and received intraperitoneal (i.p.) injections of the test compounds' vehicle. […] Picrotoxin (pic) was freshly dissolved in 1 ml 0.1N warmed HCl and the final volume was made up with 0.9 % NaCl. It has been used at dose level of 10 mg/kg i.p. and was given 30 min after the test compounds.
(§2) The anticonvulsant activity of compounds of the formula 1 in mice was measured using Pentylenetetrazole (PTZ) seizure threshold test (White, H.S. et al. In Antiepileptic Drugs, 4th ed.; L,evy, R.H. et al., Eds, Raven: New York, 1995, pp 99-121). The active compounds of the formula 1 were further tested against maximal electroshock seizure (MES), and picrotoxin induced clonic convulsions, to explore the involvement of GABA-ergic receptors in their anticonvulsant activity. The effect of compounds of the formula 1 on motor performance was studied by chimney test (Dauge, V. et al. Neuropsychopharmacology 2001, 25, 690-98). Median effective (ED50), and median sedative (TD50) were calculated.
Pentylenetetrazole (PTZ) seizure threshold test is used to evaluate the potential anticonvulsant activity of compounds of the formula 1 (White, H.S. Et al. In Antiepileptic Drugs, 4th ed.; Levy, R.H. et al., Eds, Raven: New York, 1995, pp 99-121). Each compound was tested in 4 mice groups (Swiss albino mice, 25 g body weight) for each dose level (25, 50, 100 and 200 mg/kg) and was given i.p. 30 min later, animals were received PTZ (100 mg./kg, i.p.) and observed for 30 min. A single 5 seconds episode of clonic spasms was taken as a threshold seizure. SGH-35 and SGH-40 produced 100% protection against PTZ-induced seizures, Table 1. Table 1: ED50, TD50, PI, LD50 and TI for SGH-35 and SGH-40.
(§3) In each of the chemical and the electrical methods described above, Swiss albino mice were divided into 4 groups (N = 4 animals). Each group was injected (i.p.) with one of the four selected doses that have proven to obtain a variable percentage of protection […] before the convulsants. The effective dose 50 (ED50) i.e. the dose that protected half of the animals was then calculated using the log-probit method (White, H.S. et al. In Antiepileptic Drugs, 4th ed.; Levy, R.H.et al., Eds, Raven: New York, 1995, pp 99-121).

For series [2], the system named is Albino Swiss mice. Nature of the series: Acute toxicity determination (LD50). Type of series: in vivo. To be noted: Therapeutic index = LD50/ED50 (values match the PTZ ED50). The protocol: (§4) The acute toxicity determination (LD50) for compounds of formula 1 was performed. Compounds were given intraperitoneally (i.p.) in doses ranging from 0.1-5 mmol/kg. […] All behavioral changes and death during the observation periods were recorded. The percentage of death at each dose level was then calculated, and the LD50 values were obtained (Ghosh, M., Fundamentals of Experimental Pharmacology, Scientific Book Agency, Calcutta. 1984, pp 153-158, 187-189). The protective index (PI) and therapeutic index (TI) of each compound were calculated.
(§5) Initially the approximate LD100 of each test compound was determined. Albino Swiss mice (25 g body weight) were then divided into 4 groups (6 mice each). Each group was then injected with one of 4 selected doses the highest being the LD100 dose. The animals were then observed closely for 4 hours and then occasionally for 72 hours. The percentage of death in each group was then calculated. The LD50 doses were then calculated using the Profit method (Ghosh; M., Fundamentals of Experimental Pharmacology, Scientific Book Agency, Calcutta. 1984, pp 153-158, 187-189).
(§6) The protective index (PI) - i.e. the value that indicates the margin of safety and tolerance of the test compound was calculated by the formula: Protective index (PI) = TD50/ED50. The Therapeutic Index was calculated by the formula: Therepeutic index (TI) = LD50/ED50 (Löscher, W. et al. Epilepsy Res. 1991, 9, 1-10).

Series [3] can be described thus: Acute toxicity determination (LD50). The class given is in vivo. To be noted: Albino Swiss, mouse, in vivo, ip, mice observed for 72 hours. On the procedure:
as §4, §5, §6

Series [4] concerns Swiss albino mice. Nature of the series: Maximal electroshock (MES) seizure test. The class given is in vivo. To be noted: for % Protection: MES applied 30 min after compound i.p., dose SGH-35 200 mg/kg (0.78 mmol/kg), SGH-40 100 mg/kg (0.38 mmol/kg), 4 animals; for ED50: Mus musculus, ip, MES, median effective dose, log-probit method; for PI: Protective index = TD50/ED50, MES ED50. The protocol:
as §2
The maximal electroshock (MES) seizure is one of the electrical test used to evaluate anticonvulsant activity (White, H.S. et al. In Antiepileptic Drugs, 4th ed.; Levy, R.H. et al., Eds, Raven New York, 1995, pp 99-121). […] Swiss albino mice (25 g body weight) were injected with 25, 50, 100 and 200 mg/kg of SGH-35 and SGH-40 i.p. 30 min later, mice were restrained by hand and subjected to electric shock through their ears, and released immediately following electrical stimulation, to permit observation of the maximal seizure. The maximal seizure typically consists of a short period of initial tonic flexioni and a prolonged period of tonic extension (especially the hind limb). Protection was defined as complete absence of hind limb tonic extension (Table 1).
as §3

For series [5], the system named is Swiss albino mice. Nature of the series: animal or person. Type of series: in vivo. To be noted: for ED50: Mus musculus, ip; for % Protection: Picrotoxin (8 mg/kg, IP) given 30 min after compound i.p., dose SGH-35 200 mg/kg (0.78 mmol/kg), SGH-40 100 mg/kg (0.38 mmol/kg), 4 animals; for PI: Protective index = TD50/ED50, Pic ED50. On the procedure: as §1, §2
Swiss albino mice (25 g body weight) were injected with 25, 50, 100 and 200 mg/kg of SGH-35 and SGH-40 (4 mice, i.p.). 30 min later, animals were injected sc with Pic (10 mg/kg) and observed for 30 min and the percentage protection against convulsive seizures for each compound was calculated (Table I).
as §3

Series [6] concerns Swiss albino mice. Nature of the series: Minimal neurotoxicity (chimney test), motor performance. Type of series: in vivo. To be noted: median sedative dose; chimney test at 15 and 25 min after i.p. administration. On the procedure:
as §2
(§7) The effect of SGH-35 and SGH-40 on motor performance was studied by chimney test (Dauge, V. et al. Neuropsychopharmacology 2001, 25, 690-98). At 15 and 25 min after i.p. administration of compounds SGH-35 and SGH-40, the inability of mice to climb up backwards in a glass tube of 25 cm length and 3 cm inner diameter within 30 sec was recorded and taken as a measure of neurological deficits. Normal mice climb up in 5-10 sec. The dose that impaired the motor coordination in 50% of the animals tested was labeled as the median toxin dose 50 (TD50).

Test in series [7]: as above
Type of series: in vivo, mice. To be noted: Swiss albino, mouse, in vivo, ip; median sedative dose; chimney test at 15 and 25 min after i.p. administration. The protocol:
as §2, §7

One may read the ED50 as the dose that gives a 50% effect, or the effect in half of the subjects. A high value points to weaker potency. The LD50 is the dose expected to kill half of the subjects tested. For orientation: TD50 means the 50% point of the dose-response relation for the toxic effect studied.

In the case of `CCOC(=O)C1=C(C)N2CCCC(=O)N=C2S1` [SGH-35, Ethyl 3-methyl-8-oxo-5,6,7,8-tetrahydro-thiarolo[3,2-a][1,3]diazepinie-2-carboxylate], the ED50 in series [1] came to 127 ± 9.3 mg/kg; in series [4], 90 ± 5.7 mg/kg; in series [5], 148 ± 11.1 mg/kg. Further, the “% Protection” value in series [1], in series [4] and in series [5] was 100% each time. Besides, the PI was determined as 1.57 in series [1], 2.22 in series [4] and 1.35 in series [5]. The TI in series [2] turned out to be 5.28. In series [3], the LD50 at 72 h is 670 mg/kg. For the same molecule, the TD50 in series [6] and in series [7] was 200 ± 12.3 mg/kg in each case.
`CC1=C(Br)SC2=NC(=O)CCCN21` [SGH-40, 2-Bromo-3-methyl-6,7-dihydro-thiazolo[3,2-a][1,3]diazepin-8(5H)-one]: the ED50 in series [1] was 112 ± 3.9 mg/kg; in series [4], 78 ± 4.1 mg/kg; in series [5], 129 ± 6.1 mg/kg. Moreover, the “% Protection” value in series [1], in series [4] and in series [5] was 100% throughout. The values for the PI in series [1], in series [4] and in series [5] were 1.51, 2.17 and 1.31, respectively. The TI in series [2] amounted to 5.71. In addition, in series [3], the LD50 at 72 h is 640 mg/kg. The TD50 in series [6] and in series [7] was 170 ± 6.9 mg/kg each time.
